Laboratory results taken from patent US9555061B2, “Synthesis and analysis of compounds capable of inducing differentiation of human mesenchymal stems cells into hepatocytes” (National University Corporation Torrori University, priority 2011, dated 2017).

What was measured:
UE7T-13 cells [1] = experiment: RT-PCR of genes encoding liver-specific secretory proteins and cytokines (UE7T-13); type: cell-based, human; conditions: hexachlorophene 0.8 μM or IC-2 15 μM; days 8, 16, 24
Description: Bone marrow-derived mesenchymal stem cells (UE7T-13 cells) were treated with a compound, hexachlorophene (H4625-25G; Sigma-Aldrich, Inc.) or IC-2. At that time, gene expression of each of liver-specific secretory proteins and cytokines was evaluated. […] This time point was set to day 0.
At the next day corresponding to day 1, the medium was changed to DMEM containing hexachlorophene at a final concentration of 0.8 μM or IC-2 at a final concentration of 15 μM. […] After that, the medium was replaced twice during 8 days, and the cells were subcultured every 8 days. Then, the similar operation was carried out until day 24. At days 8, 16, and 24 after the initiation of the induction, TRIzol (Invitrogen) was used to extract total RNA according to the attached instruction. After the extraction, deoxyribonuclease (Nippon Gene) was added, and the mixture was incubated at 37° C. for 30 min to remove DNA. In a reverse transcription reaction, SuperScriptII Reverse Transcriptase (Invitrogen) and Oligo(dT)15 primer were added to 1 μg of RNA to convert it into cDNA. In a RT-PCR method, the cDNA was diluted by 5 times. Next, 1 μl of the cDNA was used as a template. Then, rTaq DNA polymerase (TOYOBO) was used to amplify the cDNA. MQ water was used as a negative control. cDNA from Huh-7 or UE7T-13 cells was used as a positive control. […]

UE7T-13 cells [2] = experiment: Proliferation potential (toxicity), MTT assay (UE7T-13)
[3] = test system: Wnt/β-catenin signaling pathway; experiment: Ability of inhibiting Wnt/β-catenin pathway, luciferase assay (UE7T-13); type: cell-based, human; conditions: 8 days after the treatment; pTCF4-CMV-luciferase reporter
Description: FIG. 3 is a schematic diagram illustrating how to establish a human mesenchymal stem cell stably expressing a β-catenin/TCF4/luciferase reporter gene. FIG. 3 illustrates how to construct pTCF4-CMVpro-GL4.20 plasmid by using a luciferase expression vector. The pTCF4-CMVpro-GL4.20 plasmid contains three TCF4 sequences […] upstream of a CMV promoter to express luciferase. In addition, pCMVpro-GL4.20 plasmid was constructed as a control. The resulting plasmids were each linearized, introduced into UE7T-13 by electroporation, and selected using puromycin (0.25 μg/ml) supplemented in a medium. Puromycin-resistant cells were cloned and used for a luciferase assay.
The cell line having a vector stably expressing luciferase was seeded on a 24-well plate, and was cultured at 37° C. At the next day, the medium was changed to a medium containing IC-2, etc., and the cell line was further cultured at 37° C. After that, at days 1, 4, and 8, a luciferase assay system (Promega) was used and the luciferase activity was read with a fluorescence plate reader (ARVO) at a wavelength of 556 nm.

UE7T-13 cells [4] = experiment: Hepatocyte differentiation induction, RT-PCR of albumin (UE7T-13); type: cell-based, human; conditions: 15 μM
Description: After 24 h, the medium was changed to a medium containing IC-2, etc. After that, the medium was changed twice a week, and the cells were subcultured once a week to adjust a cell number at 9.0×10^3 cells/cm^2. Total RNA was collected at days 8, 16, and 24 after the initiation of the induction.
Total RNA was extracted with a TRIzol reagent. After the extraction, in order to completely remove DNA, deoxyribonuclease was added and the mixture was incubated at 37° C. for 1 h. A SuperScript First-Stand Synthesis System for RT-PCR (Invitrogen) was used for reverse transcription, and an oligo dT primer was used to convert 1 μg of RNA into cDNA. To perform a PCR, the cDNA was diluted by 5 times and 1 μl of the cDNA was used. A recombinant Taq DNA polymerase (Invitrogen) was used for the PCR. With regard to primers for human albumin, 5′-[…]-3′ (SEQ ID NO: 1) and 5′-[…]-3′ (SEQ ID NO: 2) were used. The PCR involved 1 cycle of 95° C. for 2 min and 35 cycles of 95° C. for 30 sec, 58° C. for 30 sec, and 72° C. for 30 sec. Human glyceraldehyde 3-phosphate dehydrogenase (GAPDH) was used as an internal control. With regard to GAPDH primers, 5′-[…]-3′ (SEQ ID NO: 3) and 5′-[…]-3′ (SEQ ID NO: 4) were used. The PCR involved 1 cycle of 95° C. for 2 min and 20 cycles of 95° C. for 30 sec, 60° C. for 30 sec, and 72° C. for 30 sec. […]

## (6S,9aS)-6-phenyl-8-naphthalen-1-ylmethyl-4,7-dioxo-hexahydro-pyrazino[1,2-a]pyrimidine-1-carbocylic acid benzylamide [IC-2]
UE7T-13 cells [1]
  expression of a plurality of the liver-specific secretory proteins and cytokines: increased levels of expression
UE7T-13 cells [2]; days 2, 4, 8 of treatment
  concentration with very low cell toxicity toward UE7T-13 cells: ≤ 20 µM
UE7T-13 cells [2]; days 2, 4, and 8
  concentration at which proliferation potential did not remain: 50 µM
[3]
  concentration that significantly inhibited the Wnt/β-catenin signaling pathway: ≥ 15 µM
UE7T-13 cells [4]
  levels of the albumin expression: particularly high
